Data from patent US10144706B2 (BRISTOL-MYERS SQUIBB COMPANY, priority 2016, dated 2018).

Target: T1, PD-1/PD-L1 interaction (PD-1-Ig / PD-L1-His) (Homo sapiens, UniProt Q9NZQ7)
T1 construct: hPDL1(18-239)-TVMV-His; TVMV protease site linker (C); made in house; host or cells: HEK293T
Assay: PD-1/PD-L1 Homogenous Time-Resolved Fluorescence (HTRF) binding assay
Details: IC50 range class; PD-L1-His 10 nM, PD-1-Ig 20 nM; read-out: Range or IC50
Source text: The ability of the compounds of formula (I) to bind to PD-L1 was investigated using a PD-1/PD-L1 Homogenous Time-Resolved Fluorescence (HTRF) binding assay.
Homogenous Time-Resolved Fluorescence (HTRF) Binding Assay.
The interaction of PD-1 and PD-L1 can be assessed using soluble, purified preparations of the extracellular domains of the two proteins. The PD-1 and PD-L1 protein extracellular domains were expressed as fusion proteins with detection tags, for PD-1, the tag was the Fc portion of Immunoglobulin (PD-1-Ig) and for PD-L1 it was the 6 histidine motif (PD-L1-His). All binding studies were performed in an HTRF assay buffer consisting of dPBS supplemented with 0.1% […] bovine serum albumin and 0.05% (v/v) Tween-20. For the h/PD-L1-His binding assay, inhibitors were pre-incubated with PD-L1-His (10 nM final) for 15 m in 4 μl of assay buffer, followed by addition of PD-1-Ig (20 nM final) in 1 μl of assay buffer and further incubation for 15 m. HTRF detection was achieved using europium crypate-labeled anti-Ig (1 nM final) and allophycocyanin (APC) labeled anti-His (20 nM final). Antibodies were diluted in HTRF detection buffer and 5 μl was dispensed on top of the binding reaction. […] Additional binding assays were established between the human proteins PD-1-Ig/PD-L2-His (20 & 5 nM, respectively) and CD80-His/PD-L1-Ig (100 & 10 nM, respectively). […]

T1 sequence (Q9NZQ7 with tags, fused parts or gaps): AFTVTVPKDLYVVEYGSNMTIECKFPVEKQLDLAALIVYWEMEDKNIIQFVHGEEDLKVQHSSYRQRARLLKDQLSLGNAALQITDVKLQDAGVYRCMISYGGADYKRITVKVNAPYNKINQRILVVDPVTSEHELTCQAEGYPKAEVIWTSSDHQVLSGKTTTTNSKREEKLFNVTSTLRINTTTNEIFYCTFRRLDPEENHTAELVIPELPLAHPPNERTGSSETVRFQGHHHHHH

SMILES	IC50 [nM]
CCC[C@@H](C(=O)O)N(C)Cc1cc(Cl)c(OCc2cccc(-c3cccc(COc4cc(OCc5ccc(-n6cccn6)nc5)c(CN(C)[C@@H](CCC)C(=O)O)cc4Cl)c3C)c2C)cc1OCc1ccc(-n2cccn2)nc1 [Example 5026, (2S,2′S)-2,2′-((((((2,2′-dimethyl-[1,1′-biphenyl]-3,3′-diyl)bis(methylene))bis(oxy))bis(2-((6-(1H-pyrazol-1-yl)pyridin-3-yl)methoxy)-5-chloro-4,1-phenylene))bis(methylene))bis(methylazanediyl))dipentanoic acid]	0.04 to 20
Cc1c(COc2cc(OCc3cncc(C#N)c3)c(CN[C@@H](C(=O)O)[C@@H](C)O)cc2Cl)cccc1-c1cccc(COc2cc(OCc3cncc(C#N)c3)c(CN[C@@H](C(=O)O)[C@@H](C)O)cc2Cl)c1C [Example 40890]	0.04 to 20
Cc1c(OCCCN2CC[C@@H](O)C2)cccc1-c1cccc(OCc2cncc(C#N)c2)c1C [Example 3011]	20.1 to 90
Cc1c(OCCCN2CCCC(C(N)=O)C2)cccc1-c1cccc(OCCCN2CC[C@@H](O)C2)c1C (stereo partly drawn) [Example 2019, 1-(3-((3′-(3-((R)-3-hydroxypyrrolidin-1-yl)propoxy)-2,2′-dimethyl-[1,1′-biphenyl]-3-yl)oxy)propyl)piperidine-3-carboxamide]	0.04 to 20
N#Cc1cncc(COc2cc(OCc3cccc(-c4cccc(COc5cc(OCc6cncc(C#N)c6)c(CN[C@@H](CCO)C(=O)O)cc5Cl)c4Cl)c3Cl)c(Cl)cc2CN[C@@H](CCO)C(=O)O)c1 [Example 40190]	0.04 to 20
Cc1c(COc2cc(OCc3cncc(C#N)c3)c(CN3CCC[C@H]3C(N)=O)cc2Cl)cccc1-c1cccc(COc2cc(OCc3cncc(C#N)c3)c(CN3CCC[C@H]3C(N)=O)cc2Cl)c1C [Example 40680]	90.1 to 1000
COC(=O)C1CCN(Cc2cc(Cl)c(OCc3cccc(-c4cccc(COc5cc(OCc6cncc(C#N)c6)c(CN6CCC(C(=O)OC)C(O)C6)cc5Cl)c4C)c3C)cc2OCc2cncc(C#N)c2)CC1O (centres unmarked) [Example 40310]	20.1 to 90
Cc1c(COc2cc(OCc3cncc(C#N)c3)c(CNC/C=C/C(=O)O)cc2Cl)cccc1-c1cccc(COc2cc(OCc3cncc(C#N)c3)c(CNC/C=C/C(=O)O)cc2Cl)c1C [Example 40280]	0.04 to 20
Cc1c(OCCCN(CC#N)C[C@H](O)CO)cccc1-c1cccc(OCCCN(CC#N)C[C@H](O)CO)c1C [Example 2100, 2,2′-((((2,2′-dimethyl-[1,1′-biphenyl]-3,3′-diyl)bis(oxy))bis(propane-3,1-diyl))bis(((S)-2,3-dihydroxypropyl)azanediyl))diacetonitrile]	20.1 to 90
Cc1c(COc2cc(OCc3cncc(C#N)c3)c(CN[C@H](C(N)=O)C3CC3)cc2Cl)cccc1-c1cccc(COc2cc(OCc3cncc(C#N)c3)c(CN[C@H](C(N)=O)C3CC3)cc2Cl)c1C [Example 40670]	20.1 to 90
Cc1c(COc2cc(OCc3cncc(C#N)c3)c(C(=O)N3CCOCC3)cc2Cl)cccc1-c1cccc(COc2cc(OCc3cncc(C#N)c3)c(C(=O)N3CCOCC3)cc2Cl)c1C [Example 80100]	0.04 to 20
Cc1c(OCCCCN2CC[C@@H](O)C2)cccc1-c1cccc(OCCCN2CC[C@@H](O)C2)c1C [Example 3002, (R)-1-(3-((3′-(4-((R)-3-hydroxypyrrolidin-1-yl)butoxy)-2,2′-dimethyl-[1,1′-biphenyl]-3-yl)oxy)propyl) pyrrolidin-3-ol]	0.04 to 20
Cc1c(OCCCN2CCN(C)C(=O)C2)cccc1-c1cccc(OCCCN2CC[C@@H](O)C2)c1C [Example 2036, (R)-4-(3-((3′-(3-(3-hydroxypyrrolidin-1-yl)propoxy)-2,2′-dimethyl-[1,1′-biphenyl]-3-yl)oxy)propyl)-1-methylpiperazin-2-one]	90.1 to 1000
Cc1cc(OCc2cccc(-c3cccc(COc4cc(OCc5cncc(C#N)c5)c(CN[C@@](C)(CO)C(=O)O)cc4Cl)c3C)c2C)c(Cl)cc1CN[C@@](C)(CO)C(=O)O [Example 5507, (S)-2-((4-((3′-((4-((((S)-2-carboxy-1-hydroxypropan-2-yl)amino)methyl)-2-chloro-5-((5-cyanopyridin-3-yl)methoxy)phenoxy)methyl)-2,2′-dimethyl-[1,1′-biphenyl]-3-yl)methoxy)-5-chloro-2-methylbenzyl)amino)-3-hydroxy-2-methylpropanoic acid]	0.04 to 20
CCN(Cc1cc(Cl)c(OCc2cccc(-c3cccc(COc4cc(OCc5cncc(C#N)c5)c(CN(CC)C(CCO)C(=O)O)cc4Cl)c3C)c2C)cc1OCc1cncc(C#N)c1)C(CCO)C(=O)O (centres unmarked) [Example 40800]	0.04 to 20

The next lines start with the values.

IC50 [nM]	SMILES
0.04 to 20	COC[C@H](NCc1cc(Cl)c(OCc2cccc(-c3cccc(COc4cc(OCc5cncc(C#N)c5)c(CN[C@@H](COC)C(=O)O)cc4Cl)c3C)c2C)cc1OCc1cncc(C#N)c1)C(=O)O [Example 40340]
0.04 to 20	COc1cc(OCc2cccc(-c3cccc(COc4cc(OC)c(CNCc5cc[nH]n5)cc4Cl)c3C)c2C)c(Cl)cc1CNCc1cc[nH]n1 [Example 5032, 1,1′-((((2,2′-dimethyl-[1,1′-biphenyl]-3,3′-diyl)bis(methylene))bis(oxy))bis(5-chloro-2-methoxy-4,1-phenylene))bis(N-((1H-pyrazol-3-yl)methyl)methanamine)]
90.1 to 1000	CCCN(CCO)CCCOc1cccc(-c2cccc(OCCCN3CC[C@@H](O)C3)c2C)c1C [Example 2053, (R)-1-(3-((3′-(3-((2-hydroxyethyl)(propyl)amino)propoxy)-2,2′-dimethyl-[1,1′-biphenyl]-3-yl)oxy)propyl)pyrrolidin-3-ol]
20.1 to 90	Cc1c(OCCCN(C)C2CC(O)C2)cccc1-c1cccc(OCCCN(C)C2CC(O)C2)c1C (centres unmarked) [Example 2090, 3,3′-((((2,2′-dimethyl-[1,1′-biphenyl]-3,3′-diyl)bis(oxy))bis(propane-3,1-diyl))bis(methylazanediyl))bis(cyclobutan-1-ol)]
20.1 to 90	Cc1c(OCCCN2CC[C@H](O)[C@@H](O)C2)cccc1-c1cccc(OCCCN2CC[C@H](O)[C@@H](O)C2)c1C [Example 2084, (3S,3′S,4S,4′S)-1,1′-(((2,2′-dimethyl-[1,1′-biphenyl]-3,3′-diyl)bis(oxy))bis(propane-3,1-diyl))bis(piperidine-3,4-diol)]
0.04 to 20	Cc1c(COc2cc(OCc3cncc(C#N)c3)c(CO)cc2Cl)cccc1-c1cccc(COc2cc(OCc3cncc(C#N)c3)c(CN[C@@](C)(CO)C(=O)O)cc2Cl)c1C [Example 2124, (S)-2-((5-chloro-4-((3′-((2-chloro-5-((5-cyanopyridin-3-yl)methoxy)-4-(hydroxymethyl)phenoxy)methyl)-2,2′-dimethyl-[1,1′-biphenyl]-3-yl)methoxy)-2-((5-cyanopyridin-3-yl)methoxy)benzyl)amino)-3-hydroxy-2-methylpropanoic acid]

Same assay, conditions: numeric IC50; PD-L1-His 10 nM, PD-1-Ig 20 nM; read-out: Range or IC50

SMILES	IC50 [nM]
Cc1c(OCCCNCCc2ccncc2)cccc1-c1cccc(OCCCN[C@@H]2C[C@H](CO)[C@@H](O)[C@H]2O)c1C [Example 2089, (1R,2S,3R,5R)-3-((3-((2,2′-dimethyl-3′-(3-((2-(pyridin-4-yl)ethyl)amino)propoxy)-[1,1′-biphenyl]-3-yl)oxy)propyl)amino)-5-(hydroxymethyl)cyclopentane-1,2-diol]	7.1
COC(=O)[C@@H](NCc1cc(Cl)c(OCc2cccc(-c3cccc(COc4cc(OCc5cncc(C#N)c5)c(CN[C@H](C(=O)OC)[C@@H](C)OC(C)(C)C)cc4Cl)c3C)c2C)cc1OCc1cncc(C#N)c1)[C@@H](C)OC(C)(C)C [Example 40950]	168
